Activity coefficient data for 3 compounds are collected here from the NIST ThermoML archive (doi:10.1016/j.jct.2006.07.006).

The series in a line: activity coefficient (dimensionless); of the first substance listed, at infinite dilution; xn = mol fraction of the nth substance listed. The following applies: 101 kPa, Liquid, x1 = 0.

Values joined by “and” are separate entries in the source; they are usually repeats but may differ in a detail not shown here. Equal entries are not always repeated. Numbers after ± are expanded uncertainties.

For `CCCCO` [butan-1-ol] + CCCCCC[n+]1ccn(C)c1.O=S(=O)([N-]S(=O)(=O)C(F)(F)F)C(F)(F)F, the activity coefficient by setting is: (323.1 K) 1.99 and 1.98 and 2.06; (333.5 K) 1.83 [middle of 4 runs]; (344 K) 1.61 [middle of 5 runs]; (354.5 K) 1.46 [middle of 5 runs]; (364.9 K) 1.34 [middle of 4 runs]; (375.4 K) 1.23 and 1.28. The activity coefficient (386.1 K) came to 1.14 ± 0.12.

`CCCCCCO` [hexan-1-ol] + CCCCCC[n+]1ccn(C)c1.O=S(=O)([N-]S(=O)(=O)C(F)(F)F)C(F)(F)F: the activity coefficient is 2.57 ± 0.47 (333.4 K); 2.32 and 2.25 and 2.37 (343.9 K); 2.14 [middle of 7 runs] (354.4 K); 1.95 [middle of 5 runs] (364.8 K); 1.8 [middle of 5 runs] (375.2 K); 1.67 and 1.69 and 1.7 (386 K). Moreover, where the note is “396 K”, the activity coefficient was determined as 1.56 ± 0.25.

With `CO` [methanol] + CCCCCC[n+]1ccn(C)c1.O=S(=O)([N-]S(=O)(=O)C(F)(F)F)C(F)(F)F, the activity coefficient is, setting by setting: (301.8 K) 1.46 [middle of 4 runs]; (312.4 K) 1.29 [middle of 5 runs]; (322.9 K) 1.15 and 1.25 and 1.22; (333.2 K) 1.1 [middle of 4 runs]; (344 K) 1 [middle of 4 runs]; (354.3 K) 0.87 and 0.93 and 0.9.
